From PubChem BioAssay (NCI)
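The concentration for 50% growth inhibition is given as GI50. The concentration for full growth arrest is given as TGI.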

Experiments:
Assay in all cases: NCI tumour cell line growth inhibition, 384-well format
HCC-2998 colon = system: HCC-2998 colon
COLO 205 colon = system: COLO 205 colon
PC-3 prostate = system: PC-3 prostate
HS 578T breast = system: HS 578T breast
HOP-92 NSCLC = system: HOP-92 NSCLC
EKVX NSCLC = system: EKVX NSCLC
HCT-116 colon = system: HCT-116 colon
SW-620 colon = system: SW-620 colon
ACHN renal = system: ACHN renal
UO-31 renal = system: UO-31 renal
SF-268 CNS = system: SF-268 CNS
U251 glioblastoma = system: U251 glioblastoma
K-562 leukemia = system: K-562 leukemia
HT29 colon = system: HT29 colon
MDA-MB-231 breast = system: MDA-MB-231 breast
SK-OV-3 ovarian = system: SK-OV-3 ovarian
TK-10 renal = system: TK-10 renal
HCT-15 colon = system: HCT-15 colon
OVCAR-4 ovarian = system: OVCAR-4 ovarian
SNB-75 CNS = system: SNB-75 CNS
OVCAR-5 ovarian = system: OVCAR-5 ovarian
SNB-19 CNS = system: SNB-19 CNS
786-0 renal = system: 786-0 renal
HOP-62 NSCLC = system: HOP-62 NSCLC
NCI-H522 lung = system: NCI-H522 lung
SK-MEL-28 melanoma = system: SK-MEL-28 melanoma
NCI-H226 lung = system: NCI-H226 lung
RPMI-8226 leukemia = system: RPMI-8226 leukemia
SN12C renal = system: SN12C renal
A498 renal = system: A498 renal
SF-539 CNS = system: SF-539 CNS
SK-MEL-5 melanoma = system: SK-MEL-5 melanoma
NCI/ADR-RES ovarian = system: NCI/ADR-RES ovarian
OVCAR-3 ovarian = system: OVCAR-3 ovarian
DU-145 prostate = system: DU-145 prostate
CCRF-CEM leukemia = system: CCRF-CEM leukemia
MOLT-4 leukemia = system: MOLT-4 leukemia
RXF 393 renal = system: RXF 393 renal
UACC-257 melanoma = system: UACC-257 melanoma
NCI-H322M lung = system: NCI-H322M lung
OVCAR-8 ovarian = system: OVCAR-8 ovarian
SF-295 CNS = system: SF-295 CNS
M14 melanoma = system: M14 melanoma
BT-549 breast = system: BT-549 breast
IGROV1 ovarian = system: IGROV1 ovarian
MDA-MB-468 breast = system: MDA-MB-468 breast
MALME-3M melanoma = system: MALME-3M melanoma
CAKI-1 renal = system: CAKI-1 renal
T-47D breast = system: T-47D breast
UACC-62 melanoma = system: UACC-62 melanoma
LOX IMVI melanoma = system: LOX IMVI melanoma
NCI-H23 lung = system: NCI-H23 lung
A549 NSCLC = system: A549 NSCLC
KM12 colon = system: KM12 colon
NCI-H460 NSCLC = system: NCI-H460 NSCLC
MCF7 breast = system: MCF7 breast
HL-60(TB) leukemia = system: HL-60(TB) leukemia
MDA-MB-435 melanoma = system: MDA-MB-435 melanoma

O=C(Nc1ccc(Oc2ccc(F)cc2)cc1)[C@@H]1C[C@@H](Cc2ccc(F)cc2)CN1C(=O)Cn1ccnn1
GI50 (HCC-2998 colon): 4.57 µM
TGI (HCC-2998 colon): 14.6 µM
GI50 (COLO 205 colon): 8.04 µM
TGI (COLO 205 colon): 21.4 µM
GI50 (PC-3 prostate): 4.69 µM
TGI (PC-3 prostate): 15 µM
GI50 (HS 578T breast): 7.78 µM
TGI (HS 578T breast): 19.6 µM
GI50 (HOP-92 NSCLC): 3.72 µM
TGI (HOP-92 NSCLC): 12.1 µM
GI50 (EKVX NSCLC): 11 µM
TGI (EKVX NSCLC): 24.9 µM
GI50 (HCT-116 colon): 5.34 µM
TGI (HCT-116 colon): 16.7 µM
GI50 (SW-620 colon): 16.1 µM
TGI (SW-620 colon): 29.8 µM
GI50 (ACHN renal): 4.88 µM
TGI (ACHN renal): 17.4 µM
GI50 (UO-31 renal): 10.8 µM
TGI (UO-31 renal): 22.9 µM
GI50 (SF-268 CNS): 2.52 µM
TGI (SF-268 CNS): 7.96 µM
GI50 (U251 glioblastoma): 4.94 µM
TGI (U251 glioblastoma): 16.3 µM
GI50 (K-562 leukemia): 4.7 µM
TGI (K-562 leukemia): 14.9 µM
GI50 (HT29 colon): 3.46 µM
TGI (HT29 colon): 11.7 µM
GI50 (MDA-MB-231 breast): 13.5 µM
TGI (MDA-MB-231 breast): 27.1 µM
GI50 (SK-OV-3 ovarian): 12.7 µM
TGI (SK-OV-3 ovarian): 28.1 µM
GI50 (TK-10 renal): 11.1 µM
TGI (TK-10 renal): 24.2 µM
GI50 (HCT-15 colon): 6.73 µM
TGI (HCT-15 colon): 21.9 µM
GI50 (OVCAR-4 ovarian): 11.9 µM
TGI (OVCAR-4 ovarian): 26.4 µM
GI50 (SNB-75 CNS): 7.44 µM
TGI (SNB-75 CNS): 20.7 µM
GI50 (OVCAR-5 ovarian): 14.7 µM
TGI (OVCAR-5 ovarian): 28.3 µM
GI50 (SNB-19 CNS): 11.6 µM
TGI (SNB-19 CNS): 25.9 µM
GI50 ([…]-0 renal): 4.65 µM
TGI (786-0 renal): 16.3 µM
GI50 (HOP-62 NSCLC): 6.4 µM
TGI (HOP-62 NSCLC): 18.2 µM
GI50 (NCI-H522 lung): 6.56 µM
TGI (NCI-H522 lung): 18.8 µM
GI50 (SK-MEL-28 melanoma): 15.8 µM
TGI (SK-MEL-28 melanoma): 29.4 µM
GI50 (NCI-H226 lung): 9.85 µM
TGI (NCI-H226 lung): 21.7 µM
GI50 (RPMI-8226 leukemia): 3.81 µM
TGI (RPMI-8226 leukemia): 9.88 µM
GI50 (SN12C renal): 12.9 µM
TGI (SN12C renal): 25.8 µM
GI50 (A498 renal): 5.24 µM
TGI (A498 renal): 16.5 µM
GI50 (SF-539 CNS): 10.9 µM
TGI (SF-539 CNS): 23 µM
GI50 (SK-MEL-5 melanoma): 8.64 µM
TGI (SK-MEL-5 melanoma): 21 µM
GI50 (NCI/ADR-RES ovarian): 16.1 µM
TGI (NCI/ADR-RES ovarian): 36.7 µM
GI50 (OVCAR-3 ovarian): 7.5 µM
TGI (OVCAR-3 ovarian): 19.5 µM
GI50 (DU-145 prostate): 10.8 µM
TGI (DU-145 prostate): 26.7 µM
GI50 (CCRF-CEM leukemia): 2.64 µM
TGI (CCRF-CEM leukemia): 5.92 µM
GI50 (MOLT-4 leukemia): 2.02 µM
TGI (MOLT-4 leukemia): 3.78 µM
GI50 (RXF 393 renal): 3.77 µM
TGI (RXF 393 renal): 11.4 µM
GI50 (UACC-257 melanoma): 11.6 µM
TGI (UACC-257 melanoma): 23.9 µM
GI50 (NCI-H322M lung): 14.8 µM
TGI (NCI-H322M lung): 30.1 µM
GI50 (OVCAR-8 ovarian): 11.1 µM
TGI (OVCAR-8 ovarian): 23.4 µM
GI50 (SF-295 CNS): 7.16 µM
TGI (SF-295 CNS): 19.5 µM
GI50 (M14 melanoma): 7.23 µM
TGI (M14 melanoma): 19.8 µM
GI50 (BT-549 breast): 7.1 µM
TGI (BT-549 breast): 18.7 µM
GI50 (IGROV1 ovarian): 7.92 µM
TGI (IGROV1 ovarian): 20.8 µM
GI50 (MDA-MB-468 breast): 6.95 µM
TGI (MDA-MB-468 breast): 18.8 µM
GI50 (MALME-3M melanoma): 6.92 µM
TGI (MALME-3M melanoma): 19.2 µM
GI50 (CAKI-1 renal): 12.1 µM
TGI (CAKI-1 renal): 25.1 µM
GI50 (T-47D breast): 3.64 µM
TGI (T-47D breast): 10 µM
GI50 (UACC-62 melanoma): 13.2 µM
TGI (UACC-62 melanoma): 26.1 µM
GI50 (LOX IMVI melanoma): 5.29 µM
TGI (LOX IMVI melanoma): 17.1 µM
GI50 (NCI-H23 lung): 15.7 µM
TGI (NCI-H23 lung): 29.9 µM
GI50 (A549 NSCLC): 4.06 µM
TGI (A549 NSCLC): 19.2 µM
GI50 (KM12 colon): 8.19 µM
TGI (KM12 colon): 20.8 µM
GI50 (NCI-H460 NSCLC): 5.39 µM
TGI (NCI-H460 NSCLC): 16.8 µM
GI50 (MCF7 breast): 4.1 µM
TGI (MCF7 breast): 14.5 µM
GI50 (HL-60(TB) leukemia): 2.44 µM
TGI (HL-60(TB) leukemia): 4.34 µM
GI50 (MDA-MB-435 melanoma): 13.3 µM
TGI (MDA-MB-435 melanoma): 26.3 µM
